Measurements as given in patent US8946234B2, “Halogen-substituted compounds” (Bayer CropScience AG, priority 2008, dated 2015).

Assay: physchem
Type: physicochemical
In short: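 Reversed-phase C18 HPLC (50×4.6 mm, 1.8 micron), 55 °C, 2.0 ml/min, acetonitrile/water with formic acid. Linear gradient 10% to 95% acetonitrile over 4.25 min, then 95% for 1.25 min. logP derived from retention per EEC Directive 79/831 Annex V.A8; MS detection.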

logP | Structure (SMILES) | logP (HPLC on C18 phase inversion column, method a))
2.83^a) | Cn1nc(C(F)(F)C(F)(F)F)c(C(F)(F)F)c1C(=O)Nc1ccc(Cl)c(C(N)=O)c1 [Ik-163] | –
3.35^a) | Cn1nc(C(F)(F)C(F)(F)F)c(C(F)(F)F)c1C(=O)Nc1ccc(F)c(C(=O)NC2CC2F)c1 (centres unmarked) [Ik-168] | –
4.00^a) | O=C(NC1CC1)c1cc(NC(=O)c2c(C(F)(F)F)c(C(F)(F)C(F)(F)F)nn2-c2ccccc2)ccc1Cl [Ik-176] | –
3.27^a) | Cn1nc(C(F)(F)C(F)(F)F)c(C(F)(F)F)c1C(=O)Nc1ccc([N+](=O)[O-])c(C(=O)NC2CC2)c1 [Ik-180] | –
2.70^a) | Cn1nc(C(F)(F)F)c(I)c1C(=O)Nc1ccc(Cl)c(C(=O)NC2CC2)c1 [Ik-182] | –
4.07^a) | Cn1nc(C(F)(F)C(F)(F)F)c(C(F)(F)F)c1C(=O)Nc1ccc(I)c(C(=O)NCc2ccccc2)c1 [Ik-184] | –
3.32^a) | COc1ccc(NC(=O)c2c(C(F)(F)F)c(C(F)(F)C(F)(F)F)nn2C)cc1C(=O)NC1CC1 [Ik-185] | –
4.09^a) | Cn1nc(C(F)(F)C(F)(F)F)c(C(F)(F)F)c1C(=O)Nc1ccc(Cl)c(C(=O)NCC=C(Cl)Cl)c1 [Ik-186] | –
3.59^a) | Cn1nc(C(F)(F)C(F)(F)F)c(C(F)(F)F)c1C(=O)Nc1cc(F)c(Cl)c(C(=O)NC2CC2)c1 [Ik-188] | –
3.91^a) | Cn1nc(C(F)(F)C(F)(F)F)c(C(F)(F)F)c1C(=O)Nc1cc(F)c(Cl)c(C(=O)NCC(F)(F)F)c1 [Ik-190] | –
3.57^a) | CSc1c(F)cc(NC(=O)c2c(C(F)(F)F)c(C(F)(F)C(F)(F)F)nn2C)cc1C(=O)NC1CC1 [Ik-191] | –
3.90^a) | CSc1c(F)cc(NC(=O)c2c(C(F)(F)F)c(C(F)(F)C(F)(F)F)nn2C)cc1C(=O)NCC(F)(F)F [Ik-193] | –
2.89^a) | Cn1nc(C(F)(F)F)c(C(F)(F)F)c1C(=O)Nc1ccc(Cl)c(C(=O)NC2CC2)c1 [Ik-195] | –
3.87^a) | CSc1c(Br)cc(NC(=O)c2c(C(F)(F)F)c(C(F)(F)C(F)(F)F)nn2C)cc1C(=O)NC1CC1 [Ik-198] | –
4.22^a) | CSc1c(Br)cc(NC(=O)c2c(C(F)(F)F)c(C(F)(F)C(F)(F)F)nn2C)cc1C(=O)NCC(F)(F)F [Ik-200] | –
3.80^a) | CSc1c(Cl)cc(NC(=O)c2c(C(F)(F)F)c(C(F)(F)C(F)(F)F)nn2C)cc1C(=O)NC1CC1 [Ik-201] | –

logP | Structure (SMILES) | logP (HPLC on C18 phase inversion column, method a))
4.39^a) | CSc1c(Cl)cc(NC(=O)c2c(C(F)(F)F)c(C(F)(F)C(F)(F)F)nn2C)cc1C(=O)NCc1ccccc1 [Ik-202] | –
4.45^a) | Cn1nc(C(F)(F)C(F)(F)F)c(C(F)(F)F)c1C(=O)Nc1cc(Cl)c(I)c(C(=O)NCc2ccccc2)c1 [Ik-205] | –
3.84^a) | Cn1nc(C(F)(F)C(F)(F)F)c(C(F)(F)F)c1C(=O)Nc1cc(Br)c(Br)c(C(=O)NC2CC2)c1 [Ik-207] | –
4.18^a) | Cn1nc(C(F)(F)C(F)(F)F)c(C(F)(F)F)c1C(=O)Nc1cc(Br)c(Br)c(C(=O)NCC(F)(F)F)c1 [Ik-209] | –
3.92^a) | Cn1nc(C(F)(F)C(F)(F)F)c(C(F)(F)F)c1C(=O)Nc1cc(Br)c(I)c(C(=O)NC2CC2)c1 [Ik-210] | –
4.49^a) | Cn1nc(C(F)(F)C(F)(F)F)c(C(F)(F)F)c1C(=O)Nc1cc(Br)c(I)c(C(=O)NCc2ccccc2)c1 [Ik-211] | –
4.15^a) | Cn1nc(C(F)(F)C(F)(F)F)c(C(F)(F)F)c1C(=O)Nc1cc(Br)c(I)c(C(=O)NCC(F)(F)F)c1 [Ik-212] | –
4.42^a) | Cn1nc(C(F)(F)C(F)(F)F)c(C(F)(F)F)c1C(=O)Nc1cc(Cl)c(Br)c(C(=O)NCc2ccccc2)c1 [Ik-214] | –
4.14^a) | Cn1nc(C(F)(F)C(F)(F)F)c(C(F)(F)F)c1C(=O)Nc1cc(Cl)c(Br)c(C(=O)NCC(F)(F)F)c1 [Ik-215] | –
3.63^a) | CCn1nc(C(F)(F)C(F)(F)F)c(C(F)(F)F)c1C(=O)Nc1ccc(Cl)c(C(=O)NC2CC2)c1 [Ik-217] | –
3.74^a) | Cn1nc(C(F)(F)C(F)(F)F)c(C(F)(F)F)c1C(=O)Nc1cc(Br)cc(C(=O)NC2CC2)c1 [Ik-221] | –
3.99^a) | Cn1nc(C(F)(F)C(F)(F)F)c(C(F)(F)F)c1C(=O)Nc1cc(F)c(I)c(C(=O)NCC=CCl)c1 [Ik-224] | –
3.63^a) | Cn1nc(C(F)(F)C(F)(F)F)c(C(F)(F)F)c1C(=O)Nc1cc(F)c(I)c(C(=O)NC2CC2)c1 [Ik-225] | –
3.95^a) | Cn1nc(C(F)(F)C(F)(F)F)c(C(F)(F)F)c1C(=O)Nc1cc(F)c(I)c(C(=O)NCC(F)(F)F)c1 [Ik-226] | –
4.20^a) | Cn1nc(C(F)(F)C(F)(F)F)c(C(F)(F)F)c1C(=O)Nc1cc(F)c(I)c(C(=O)NCc2ccccc2)c1 [Ik-227] | –
3.88^a) | Cn1nc(C(F)(F)C(F)(F)F)c(C(F)(F)F)c1C(=O)Nc1cc(F)c(Br)c(C(=O)NCC(F)(F)F)c1 [Ik-228] | –

Continued, compound first:

Structure (SMILES) | logP | logP (HPLC on C18 phase inversion column, method a))
Cn1nc(C(F)(F)F)c(Br)c1C(=O)Nc1ccc(Cl)c(C(=O)NCC(F)(F)F)c1 [Ik-160] | 3.17^a) | –
CC(NC(=O)c1cc(NC(=O)c2c(C(F)(F)F)c(C(F)(F)C(F)(F)F)nn2C)ccc1F)C(F)(F)F (centres unmarked) [Ik-161] | 3.89^a) | –
Cn1nc(C(F)(F)C(F)(F)F)c(C(F)(F)F)c1C(=O)Nc1cc(F)cc(C(=O)NCc2ccccc2)c1 [Ik-162] | 4.05^a) | –
CC(C)(C)n1nc(C(F)(F)C(F)(F)F)c(C(F)(F)F)c1C(=O)Nc1ccc(Cl)c(C(=O)NC2CC2)c1 [Ik-167] | 4.17^a) | –
Cn1nc(C(F)(F)C(F)(F)F)c(C(F)(F)F)c1C(=O)Nc1cc(F)c(F)c(C(=O)NC2CC2)c1F [Ik-169] | 3.53^a) | –
Cn1nc(C(F)(F)C(F)(F)F)c(C(F)(F)F)c1C(=O)Nc1cc(Cl)cc(C(=O)NC2CC2)c1Cl [Ik-170] | 3.78^a) | –
Cn1nc(C(F)(F)C(F)(F)F)c(C(F)(F)F)c1C(=O)Nc1cc(C(=O)NCC(F)(F)F)c(Cl)cc1Cl [Ik-171] | 3.97^a) | –
Cn1nc(C(F)(F)C(F)(F)F)c(C(F)(F)F)c1C(=O)Nc1ccc(Br)c(C(=O)NCc2ccccc2)c1 [Ik-172] | 4.03^a) | –
Cn1nc(C(F)(F)C(F)(F)F)c(C(F)(F)F)c1C(=O)Nc1ccc(Br)c(C(=O)NCC(F)(F)F)c1 [Ik-173] | 3.77^a) | –
CC(NC(=O)c1cc(NC(=O)c2c(C(F)(F)F)c(C(F)(F)C(F)(F)F)nn2C)ccc1Br)C(F)(F)F (centres unmarked) [Ik-174] | 3.95^a) | –
Cn1nc(C(F)(F)C(F)(F)F)c(C(F)(F)F)c1C(=O)Nc1ccc(Br)c(C(=O)NC2CC2)c1 [Ik-175] | 3.39^a) | –
Cn1nc(C(F)(F)C(F)(F)F)c(C(F)(F)F)c1C(=O)Nc1cc(Br)c(Cl)c(C(=O)NCC(F)(F)F)c1 [Ik-178] | 4.14^a) | –
O=C(NC1CC1)c1cc(NC(=O)c2[nH]nc(C(F)(F)C(F)(F)F)c2C(F)(F)F)ccc1Cl [Ik-179] | 2.95^a) | –
Cn1nc(C(F)(F)C(F)(F)F)c(C(F)(F)F)c1C(=O)Nc1ccc([N+](=O)[O-])c(C(=O)NCC(F)(F)F)c1 [Ik-181] | 3.58^a) | –
Cn1nc(C(F)(F)C(F)(F)F)c(C(F)(F)F)c1C(=O)Nc1ccc(I)c(C(=O)NC2CC2)c1 [Ik-183] | 3.45^a) | –
Cn1nc(C(F)(F)C(F)(F)F)c(C(F)(F)F)c1C(=O)Nc1cc(C#N)c(Cl)c(C(=O)NC2CC2)c1 [Ik-187] | 3.40^a) | –
Cn1nc(C(F)(F)C(F)(F)F)c(C(F)(F)F)c1C(=O)Nc1cc(F)c(Cl)c(C(=O)NCc2ccccc2)c1 [Ik-189] | 4.14^a) | –
CSc1c(F)cc(NC(=O)c2c(C(F)(F)F)c(C(F)(F)C(F)(F)F)nn2C)cc1C(=O)NCc1ccccc1 [Ik-192] | 4.15^a) | –

Structure (SMILES) | logP | logP (HPLC on C18 phase inversion column, method a))
Cn1nc(C(F)(F)C(F)(F)F)c(C(F)(F)F)c1C(=O)Nc1cc(F)c(S(C)(=O)=O)c(C(=O)NC2CC2)c1 [Ik-194] | 2.92^a) | –
Cn1nc(C(F)(F)F)c(C(F)(F)F)c1C(=O)Nc1ccc(Cl)c(C(=O)NCC=CCl)c1 [Ik-196] | 3.28^a) | –
O=C(NC1CC1)c1cc(NC(=O)c2[nH]nc(C(F)(F)F)c2C(F)(F)F)ccc1Cl [Ik-197] | 2.55^a) | –
CSc1c(Br)cc(NC(=O)c2c(C(F)(F)F)c(C(F)(F)C(F)(F)F)nn2C)cc1C(=O)NCc1ccccc1 [Ik-199] | 4.43^a) | –
CSc1c(Cl)cc(NC(=O)c2c(C(F)(F)F)c(C(F)(F)C(F)(F)F)nn2C)cc1C(=O)NCC(F)(F)F [Ik-203] | 4.15^a) | –
Cn1nc(C(F)(F)C(F)(F)F)c(C(F)(F)F)c1C(=O)Nc1cc(Cl)c(I)c(C(=O)NC2CC2)c1 [Ik-204] | 3.84^a) | –
Cn1nc(C(F)(F)C(F)(F)F)c(C(F)(F)F)c1C(=O)Nc1cc(Cl)c(I)c(C(=O)NCC(F)(F)F)c1 [Ik-206] | 4.18^a) | –
Cn1nc(C(F)(F)C(F)(F)F)c(C(F)(F)F)c1C(=O)Nc1cc(Br)c(Br)c(C(=O)NCc2ccccc2)c1 [Ik-208] | 4.42^a) | –
Cn1nc(C(F)(F)C(F)(F)F)c(C(F)(F)F)c1C(=O)Nc1cc(Cl)c(Br)c(C(=O)NC2CC2)c1 [Ik-213] | 3.81^a) | –
CCn1nc(C(F)(F)C(F)(F)F)c(C(F)(F)F)c1C(=O)Nc1ccc(Cl)c(C(=O)NCC(F)(F)F)c1 [Ik-216] | 3.93^a) | –
CC(C)n1nc(C(F)(F)C(F)(F)F)c(C(F)(F)F)c1C(=O)Nc1ccc(Cl)c(C(=O)NC2CC2)c1 [Ik-218] | 4.02^a) | –
COCn1nc(C(F)(F)C(F)(F)F)c(C(F)(F)F)c1C(=O)Nc1ccc(Cl)c(C(=O)NC2CC2)c1 [Ik-219] | 3.50^a) | –
COCn1nc(C(F)(F)C(F)(F)F)c(C(F)(F)F)c1C(=O)Nc1ccc(Cl)c(C(=O)NCC(F)(F)F)c1 [Ik-220] | – | 3.82^a)
Cn1nc(C(F)(F)C(F)(F)F)c(C(F)(F)F)c1C(=O)Nc1cc(Br)cc(C(=O)NCc2ccccc2)c1 [Ik-222] | 4.35^a) | –
Cn1nc(C(F)(F)C(F)(F)F)c(C(F)(F)F)c1C(=O)Nc1cc(Br)cc(C(=O)NCC(F)(F)F)c1 [Ik-223] | 4.09^a) | –
Cn1nc(C(F)(F)C(F)(F)F)c(C(F)(F)F)c1C(=O)Nc1cc(F)c(Br)c(C(=O)NCc2ccccc2)c1 [Ik-229] | 4.14^a) | –
Cn1nc(C(F)F)c(C(F)(F)F)c1C(=O)Nc1ccc(Cl)c(C(=O)NC2CC2)c1 [Ik-231] | 2.46^a) | –
Cn1nc(C(F)F)c(C(F)(F)F)c1C(=O)Nc1ccc(Cl)c(C(=O)NCC=CCl)c1 [Ik-232] | 2.92^a) | –
